Source: article PMC5433508 (Chemical Science, 2017)

Test system: MDA-MB-231 cells
Assay: MTT cell viability assay, MDA-MB-231
Format: cell-based, human
Conditions: co-treatment with LYN-1604 for 24 h

Structure (SMILES): CNC(=O)c1ccccc1Oc1nc(Nc2cc(OC)c(OC)c(OC)c2)ncc1Br [SBI-0206965]
- effect on LYN-1604-induced cell death: decrease LYN-1604-induced cell death
